# Results taken from US12662451B2, “Chemical compounds and uses thereof” (GLAXOSMITHKLINE INTELLECTUAL PROPERTY (NO.4) LIMITED, priority 2023, dated 2026).
# Like-named read-outs stand apart in the source and are kept apart here.
# Legend:
# [1] = target: T1, recombinant full-length WRN protein (1-1432) (Homo sapiens, UniProt Q14191); assay: WRN unwinding activity, fluorogenic 384-well assay (Example A); format: biochemical; details: WRN unwinding activity, 4 hr; Table 2; read-out: 4 hr UNW pIC50 (converted)
# T1 construct: recombinant full-length WRN protein (1-1432)
# Procedure, shortened: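 200 pM enzyme (2× stock) preincubated with compound 4 h at ambient temperature, then 200 μM ATP and 12 nM quenched TAMRA-labelled dsDNA (2× stocks) added for 60 min; EDTA-quenched. Buffer 25 mM Tris pH 8.0, 5 mM NaCl, 2 mM MgCl2. Fluorescence at 525/598 nm; pIC50 from four-parameter fit.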
# [2] = Cell culture media unbound percentage and stability by rapid equilibrium dialysis (Example C); format: in vitro ADME; details: bovine, cell assay medium (RPMI-1640 with 10% fetal bovine serum), pH 7.4, rapid equilibrium dialysis, 4 hours at 37° C., read-out: Cell Culture Media Binding (% unbound)
# Procedure, shortened: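 Compound spiked into cell culture medium at nominal 1 μM and dialysed against PBS (100 mM sodium phosphate + 150 mM NaCl, pH 7.4) by rapid equilibrium dialysis, triplicate, 4 h at 37° C with shaking. LC-MS/MS peak area ratios gave percent unbound (receiver/donor) and percent stability (240 min vs 0 min).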
# [3] = tested on: SW48 human colorectal cancer cells; assay: Calculated free drug potency in SW48 cell assay, corrected with media free fraction (Example C); format: cell-based; details: Homo sapiens, SW48, SW48 pCC50 corrected with measured free fraction in cell assay media
# Procedure, shortened: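 Compound spiked at nominal 1 μM into cell assay medium and dialysed against PBS (100 mM sodium phosphate, 150 mM NaCl, pH 7.4) by rapid equilibrium dialysis, 4 h, 37 °C, shaking. Percent unbound from LC-MS/MS peak area ratios (240 min vs 0 min); cell assay concentrations corrected by this free fraction.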
# [4] = tested on: SW48 human colorectal cancer cells (MSI-H cancer cells); assay: SW48 cell viability, CellTiter-Glo, 120 hours (Example B); details: Homo sapiens
# [5] = SW48, 120 h, read-out: SW48 pCC50, SW48 cell viability, 120 hours incubation (converted), Table 2
# [6] = SW48, read-out: SW48 pCC50, measured potency from Example B, as repeated in Table 3 (converted)
# T1 sequence (Q14191 whole entry): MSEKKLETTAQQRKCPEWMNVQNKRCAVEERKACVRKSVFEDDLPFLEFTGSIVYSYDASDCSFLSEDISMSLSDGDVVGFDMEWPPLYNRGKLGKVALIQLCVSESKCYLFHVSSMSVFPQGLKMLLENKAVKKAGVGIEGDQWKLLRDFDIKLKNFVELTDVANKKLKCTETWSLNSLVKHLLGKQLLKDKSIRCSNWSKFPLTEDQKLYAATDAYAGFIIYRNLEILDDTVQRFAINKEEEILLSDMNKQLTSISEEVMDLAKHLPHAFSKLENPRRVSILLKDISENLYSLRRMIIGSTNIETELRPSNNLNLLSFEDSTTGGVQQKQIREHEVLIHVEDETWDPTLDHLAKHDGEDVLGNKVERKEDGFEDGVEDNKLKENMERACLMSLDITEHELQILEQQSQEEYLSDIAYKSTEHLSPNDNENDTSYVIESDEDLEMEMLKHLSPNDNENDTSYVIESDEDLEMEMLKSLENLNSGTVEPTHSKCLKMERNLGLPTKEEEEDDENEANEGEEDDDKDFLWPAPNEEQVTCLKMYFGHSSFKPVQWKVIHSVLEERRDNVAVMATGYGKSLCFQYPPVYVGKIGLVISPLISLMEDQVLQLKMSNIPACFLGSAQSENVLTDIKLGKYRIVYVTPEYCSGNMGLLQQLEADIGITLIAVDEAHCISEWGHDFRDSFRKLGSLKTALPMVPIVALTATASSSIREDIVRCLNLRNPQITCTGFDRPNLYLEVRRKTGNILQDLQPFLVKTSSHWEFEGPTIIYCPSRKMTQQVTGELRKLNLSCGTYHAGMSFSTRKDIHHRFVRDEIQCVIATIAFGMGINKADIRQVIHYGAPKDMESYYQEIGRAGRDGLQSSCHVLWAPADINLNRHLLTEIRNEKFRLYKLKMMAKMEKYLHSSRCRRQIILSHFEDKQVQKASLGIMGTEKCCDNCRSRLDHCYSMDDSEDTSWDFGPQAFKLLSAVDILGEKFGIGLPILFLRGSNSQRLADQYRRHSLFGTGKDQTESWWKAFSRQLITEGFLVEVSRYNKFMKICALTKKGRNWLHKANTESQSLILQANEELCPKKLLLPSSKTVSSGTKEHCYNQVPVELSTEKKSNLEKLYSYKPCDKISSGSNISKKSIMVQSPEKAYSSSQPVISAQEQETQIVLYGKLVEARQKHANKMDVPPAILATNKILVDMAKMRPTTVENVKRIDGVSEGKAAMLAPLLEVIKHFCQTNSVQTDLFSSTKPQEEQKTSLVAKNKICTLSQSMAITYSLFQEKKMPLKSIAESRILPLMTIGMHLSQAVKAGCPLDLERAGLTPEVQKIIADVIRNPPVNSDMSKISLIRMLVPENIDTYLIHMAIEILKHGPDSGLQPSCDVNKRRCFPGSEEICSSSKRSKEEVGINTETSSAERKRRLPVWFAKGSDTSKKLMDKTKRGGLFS
SMILES,IC50 [1],"fraction unbound at 4 h, 1 µM [2]",CC50 [3],"CC50 [4, 5]","CC50 [4, 6]"
"Cc1cc([C@H]2CCC[C@@H](C(=O)Nc3ccc(C(F)(F)F)cc3F)[C@@H]2C(=O)O)ccc1N(C)S(=O)(=O)c1ccc2c(c1)nc(C)n2C [Example 295, (1R,2R,6S)-2-((2-fluoro-4-(trifluoromethyl)phenyl)carbamoyl)-6-(3-methyl-4-((N,1,2-trimethyl-1H-benzo[d]imidazole)-5-sulfonamido)phenyl)cyclohexane-1-carboxylic acid]",1.58 nM,0.118,186 nM,1580 nM,1580 nM
Cc1nc2cc(S(=O)(=O)N(C)c3ccc([C@H]4CCC[C@@H](C(=O)Nc5ccc(C(F)(F)F)cc5F)[C@@H]4C(=O)O)cc3Cl)ccc2n1C [Example 296],1.58 nM,0.0979,155 nM,1580 nM,1580 nM
"CN(c1ccc([C@H]2CCC[C@@H](C(=O)Nc3ccc(C(F)(F)F)cc3F)[C@@H]2C(=O)O)cc1)S(=O)(=O)c1ccc2c(c1)nc(Cl)n2C [Example 365, (1R,2S,6R)-2-(4-((2-chloro-N,1-dimethyl-1H-benzo[d]imidazole)-5-sulfonamido)phenyl)-6-((2-fluoro-4-(trifluoromethyl)phenyl)carbamoyl)cyclohexane-1-carboxylic acid]",3.16 nM,0.0658,26.3 nM,398 nM,398 nM

# More lines, main results first:
IC50 [1],"fraction unbound at 4 h, 1 µM [2]",SMILES,CC50 [3],"CC50 [4, 5]","CC50 [4, 6]"
5.01 nM,0.102,"CCOC1CC(C(=O)Nc2ccc(C(F)(F)F)cc2)C(C(=O)O)C(c2ccc(N(C)S(=O)(=O)c3ccc4c(c3)nc(C)n4C)cc2)C1 [Example 330, rel-(1R,2R,4R,6S)-4-ethoxy-2-((4-(trifluoromethyl)phenyl)carbamoyl)-6-(4-((N,1,2-trimethyl-1H-benzo[d]imidazole)-5-sulfonamido)phenyl)cyclohexane-1-carboxylic acid]",40.7 nM,398 nM,398 nM
1.58 nM,0.208,"CN(c1ccc([C@H]2CCC[C@@H](C(=O)Nc3ccc(C(F)(F)F)cc3F)[C@@H]2C(=O)O)cc1)S(=O)(=O)c1ccc2c(c1)nc(CO)n2C [Example 372, (1R,2R,6S)-2-((2-fluoro-4-(trifluoromethyl)phenyl)carbamoyl)-6-(4-((2-(hydroxymethyl)-N,1-dimethyl-1H-benzo[d]imidazole)-5-sulfonamido)phenyl)cyclohexane-1-carboxylic acid]",41.7 nM,200 nM,200 nM
1.58 nM,0.175,"CCO[C@@H]1C[C@H](c2ccc(N(C)S(=O)(=O)c3ccc4c(c3)nc(CO)n4C)cc2)[C@@H](C(=O)O)[C@H](C(=O)Nc2ccc(C(F)(F)F)cc2F)C1 [Example 373, (1R,2R,4R,6S)-4-ethoxy-2-((2-fluoro-4-(trifluoromethyl)phenyl)carbamoyl)-6-(4-((2-(hydroxymethyl)-N,1-dimethyl-1H-benzo[d]imidazole)-5-sulfonamido)phenyl)cyclohexane-1-carboxylic acid]",17.4 nM,100 nM,100 nM
1.58 nM,0.0717,"Cc1nc2cc(S(=O)(=O)N(C)c3ccc([C@H]4CCC[C@@H](C(=O)Nc5ccc(C(C)C)cc5)[C@@H]4C(=O)O)cc3)ccc2n1C [Example 396, (1R,2R,6S)-2-((4-isopropylphenyl)carbamoyl)-6-(4-((N,1,2-trimethyl-1H-benzo[d]imidazole)-5-sulfonamido)phenyl)cyclohexane-1-carboxylic acid]",45.7 nM,631 nM,631 nM
